Results: publication PMC6886872, “Discovery of a small molecule inhibitor targeting dengue virus NS5 RNA-dependent RNA polymerase” (PLoS Neglected Tropical Diseases, 2019)
Where two headings read alike, the source gives them in different places.

Legend:
[1] = tested on: Vero cells; experiment: Cytotoxicity, WST-1 assay; type: cell-based; settings: two days culture
Protocol: The cytotoxic activities of the compounds were tested using a WST-1 assay (Roche Diagnostics), according to the manufacturer’s instructions. […] Ten μL of WST-1 solution was added to each well, and the cells were further incubated for 30 min. The absorbance was measured at 450 nm, with subtraction of the nonspecific background at 650 nm.

[2] = tested on: DENV2 P04/08 strain; experiment: Cell-based antiviral assay, viral RNA in supernatant of infected Vero cells (RT-qPCR); settings: 72 hours after infection
[3] = target: T1, full-length DENV3 NS5 (Dengue virus type 3, UniProt P27915); experiment: biochemical
T1 construct: full-length NS5 proteins, comprising the N-terminal MTase and the C-terminal RdRp; His-tag (N, cleaved yes); SUMO (N, cleaved yes); made in house; host or cells: E. coli KRX

[4] = tested on: DENV1 (Mochizuki strain); experiment: Cell-based antiviral assay, viral RNA in supernatant of infected Vero cells (RT-qPCR); design: species or system Dengue virus serotype 1 (DENV1); settings: Dengue virus, 72 h, viral RNA 3 days after infection
Protocol: (§1) The experiments were performed in triplicate.

[5] = tested on: DENV2 16681 strain; experiment: as above; settings: Dengue virus, 72 h; DENV2 16681, Vero cells, viral RNA 3 days after infection
Protocol: as §1

[6] = tested on: DENV3 (H87 strain); experiment: as above; settings: 72 h, viral RNA 3 days after infection
Protocol: as §1

[7] = tested on: DENV4 (H241 strain); experiment: as above; settings: 72 h, viral RNA 3 days after infection
Protocol: as §1

[8] = tested on: recombinant DENV2 (WT, C780A, C780Q NS5); type: cell-based
[9] = tested on: NS5 proteins from DENV1–4; type: biochemical; settings: range over NS5 proteins from DENV1–4; read-out: IC50 values, RdRp activities
[10] = target: T2, full-length DENV4 NS5 (Dengue virus type 4, UniProt P09866); experiment: biochemical; settings: read-out: IC50 Polymerase assay
T2 construct: full-length NS5 proteins, comprising the N-terminal MTase and the C-terminal RdRp; His-tag (N, cleaved yes); SUMO (N, cleaved yes); made in house; host or cells: E. coli KRX

[11] = tested on: DENV1–4 infections; experiment: Cell-based antiviral assay, summary over serotypes; settings: range over DENV1–4; read-out: EC50 values, antiviral activities
Protocol: as §1

CC(=O)Oc1ccc2oc(=O)sc2c1 [RK-0404678, (2-Oxo-1,3-benzoxathiol-5-yl) acetate]
cytotoxicity in Vero cells [1]: marginal cytotoxicity even at the highest concentration (50 μM)
antiviral effect on DENV2 P04/08 strain compared with 16681 strain [2]: comparable effect
IC50 [3]: 287 ± 11 µM
EC50 [4]: 29.5 ± 4.2 µM
EC50 [5]: 6 ± 0.3 µM
EC50 [6]: 29.4 ± 1.8 µM
EC50 [7]: 31.9 ± 2.8 µM
EC50 ([8]; DENV2 NS5 C780A mutant virus (Site 1)): 3.3 ± 1.1 µM
EC50 ([8]; DENV2 NS5 C780Q mutant virus (Site 1)): 12.8 ± 2.2 µM
EC50 ([8]; WT (recombinant) DENV2 virus): 7.1 ± 0.67 µM
IC50 [9]: 46.2 to 445 µM
IC50 [10]: 445 ± 23 µM
EC50 [11]: 6 to 31.9 µM
